The values that follow come from ChEMBL document CHEMBL4428125, “8-Substituted 1,3-dimethyltetrahydropyrazino[2,1-f]purinediones: Water-soluble adenosine receptor antagonists and monoamine oxidase B inhibitors” (Bioorg Med Chem, 2016).

By Ki is commonly meant a dissociation constant, usually derived from enzyme kinetics or from competition with a known ligand. The low end stands for higher affinity, the high end for lower affinity. A word on the IC50: it is the point on the concentration scale where inhibition reaches its midpoint. What is called inhibition is how much of the control response was suppressed.

One assay has as its target T1, Adenosine receptor A1 (Rattus norvegicus, UniProt P25099).
T1 sequence (P25099 whole entry): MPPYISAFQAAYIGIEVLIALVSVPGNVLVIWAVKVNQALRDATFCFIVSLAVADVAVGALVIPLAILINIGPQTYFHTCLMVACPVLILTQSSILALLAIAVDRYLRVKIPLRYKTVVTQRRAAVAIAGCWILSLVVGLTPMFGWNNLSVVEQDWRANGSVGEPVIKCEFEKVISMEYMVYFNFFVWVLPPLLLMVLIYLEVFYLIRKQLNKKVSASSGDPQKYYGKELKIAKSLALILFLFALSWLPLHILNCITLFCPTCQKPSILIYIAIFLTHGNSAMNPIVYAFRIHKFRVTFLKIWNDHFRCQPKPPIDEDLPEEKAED
Put plainly: Displacement of [3H]CCPA from A1 receptor in rat brain cortex membranes by liquid scintillation counting method. It is filed as cell membranes. In general terms: Displacement assays read how much labelled ligand stays bound in the presence of the test substance.

In assay [1] the target is T2, Adenosine receptor A2b (Homo sapiens) (UniProt P29275).
T2 sequence (whole entry): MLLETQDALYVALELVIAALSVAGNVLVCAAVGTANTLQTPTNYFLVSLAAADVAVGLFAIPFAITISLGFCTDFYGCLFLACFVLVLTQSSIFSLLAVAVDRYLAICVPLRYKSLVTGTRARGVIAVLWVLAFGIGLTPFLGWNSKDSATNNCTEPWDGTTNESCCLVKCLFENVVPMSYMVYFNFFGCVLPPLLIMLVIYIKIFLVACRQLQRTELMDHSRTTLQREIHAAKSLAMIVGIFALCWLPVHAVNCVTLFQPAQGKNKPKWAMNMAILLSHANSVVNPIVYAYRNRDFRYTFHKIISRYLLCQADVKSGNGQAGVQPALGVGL
Description: Displacement of [3H]PSB-603 from human A2B receptor expressed in CHO cell membrane at 1 uM relative to control. It counts as cell membranes.

The target in the next assay is T3, Adenosine receptor A3 (Homo sapiens, UniProt P0DMS8).
T3 sequence (P0DMS8 whole entry): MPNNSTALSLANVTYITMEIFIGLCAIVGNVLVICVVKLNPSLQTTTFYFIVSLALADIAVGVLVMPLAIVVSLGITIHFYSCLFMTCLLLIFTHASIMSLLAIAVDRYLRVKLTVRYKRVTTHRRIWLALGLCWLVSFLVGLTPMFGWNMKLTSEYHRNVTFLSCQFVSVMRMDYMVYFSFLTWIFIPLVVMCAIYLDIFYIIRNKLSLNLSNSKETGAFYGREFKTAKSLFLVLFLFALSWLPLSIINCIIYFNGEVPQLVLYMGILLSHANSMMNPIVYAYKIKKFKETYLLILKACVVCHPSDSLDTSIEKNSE
Description: Displacement of [3H]PSB-11 from human A3 receptor expressed in CHO cell membrane by liquid scintillation counting method relative to control. It is filed as cell membranes.

In another assay the target is Adenosine receptor A2a (Rattus norvegicus, UniProt P30543). Put plainly: Displacement of [3H]MSX from A2A receptor in rat brain striatum membranes measured after 30 mins by liquid scintillation counting method. It is filed as cell membranes.
Chain of Adenosine receptor A2a (P30543 whole entry): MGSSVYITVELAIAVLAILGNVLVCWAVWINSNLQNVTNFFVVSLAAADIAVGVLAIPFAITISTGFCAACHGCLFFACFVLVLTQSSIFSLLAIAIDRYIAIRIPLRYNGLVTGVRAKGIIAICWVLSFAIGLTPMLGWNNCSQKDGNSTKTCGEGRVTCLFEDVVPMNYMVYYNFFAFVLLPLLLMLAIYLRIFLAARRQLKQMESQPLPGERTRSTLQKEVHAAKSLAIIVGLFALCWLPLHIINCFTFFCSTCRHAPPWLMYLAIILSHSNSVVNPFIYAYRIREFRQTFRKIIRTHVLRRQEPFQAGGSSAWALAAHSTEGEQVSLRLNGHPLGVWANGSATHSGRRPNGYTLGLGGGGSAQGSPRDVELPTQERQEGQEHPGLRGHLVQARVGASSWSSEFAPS
Assay [2] deals with T4, Amine oxidase [flavin-containing] B (Homo sapiens, UniProt P27338).
T4 sequence (P27338 whole entry): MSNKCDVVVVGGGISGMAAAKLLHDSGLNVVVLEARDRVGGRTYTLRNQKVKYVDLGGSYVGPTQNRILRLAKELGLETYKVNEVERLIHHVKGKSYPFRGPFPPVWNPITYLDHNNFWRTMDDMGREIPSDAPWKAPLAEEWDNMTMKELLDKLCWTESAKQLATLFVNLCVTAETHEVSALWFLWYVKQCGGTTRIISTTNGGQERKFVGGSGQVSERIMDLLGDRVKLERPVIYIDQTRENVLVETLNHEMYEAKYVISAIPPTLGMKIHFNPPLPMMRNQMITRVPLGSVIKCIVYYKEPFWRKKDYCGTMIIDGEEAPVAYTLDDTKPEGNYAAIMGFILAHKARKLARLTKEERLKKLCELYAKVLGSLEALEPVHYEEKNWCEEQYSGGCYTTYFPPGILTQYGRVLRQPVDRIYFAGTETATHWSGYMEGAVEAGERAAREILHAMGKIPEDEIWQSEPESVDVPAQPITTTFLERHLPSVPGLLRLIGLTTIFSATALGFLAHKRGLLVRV
Description: Inhibition of recombinant human MAO-B expressed in baculovirus infected BTI insect cells preincubated for 30 mins followed by addition of p-tyramine as substrate measured over 45 mins by Amplex Red MAO assay.

Assay [3] concerns the target T5, Adenosine receptor A1 (Rattus norvegicus) (UniProt P25099).
T5 sequence (whole entry): T1 sequence (P25099 whole entry)
Description: Displacement of [3H]CCPA from A1 receptor in rat brain cortex membranes at 1.5 uM by liquid scintillation counting method. It counts as cell membranes.

The target of assay [4] is T6, Adenosine receptor A3 (Homo sapiens) (UniProt P0DMS8).
T6 sequence (whole entry): T3 sequence (P0DMS8 whole entry)
Description: Displacement of [3H]PSB-11 from human A3 receptor expressed in CHO cell membrane at 10 uM by liquid scintillation counting method relative to control relative to control. It is filed as cell membranes.

For assay [5], the target named is Adenosine receptor A2a (Rattus norvegicus) (UniProt P30543). Description: Displacement of [3H]MSX from A2A receptor in rat brain striatum membranes at 1 uM measured after 30 mins by liquid scintillation counting method relative to control. It counts as cell membranes.
Chain of Adenosine receptor A2a (Rattus norvegicus) (P30543 whole entry): as the sequence (P30543 whole entry) above
Assay [6] concerns the target T4, Amine oxidase [flavin-containing] B. Put plainly: Inhibition of recombinant human MAO-B expressed in baculovirus infected BTI insect cells at 10 uM preincubated for 30 mins followed by addition of p-tyramine as substrate measured over 45 mins by Amplex Red MAO assay relative to control. The following applies: 0.75 h.
Another assay has as its target T7, Adenosine receptor A2b (Homo sapiens, UniProt P29275).
T7 sequence (P29275 whole entry): T2 sequence (whole entry)
Put plainly: Displacement of [3H]PSB-603 from human A2B receptor expressed in CHO cell membrane. It counts as cell membranes.

Assay [7] deals with T8, Amine oxidase [flavin-containing] A (Homo sapiens, UniProt P21397).
T8 sequence (P21397 whole entry): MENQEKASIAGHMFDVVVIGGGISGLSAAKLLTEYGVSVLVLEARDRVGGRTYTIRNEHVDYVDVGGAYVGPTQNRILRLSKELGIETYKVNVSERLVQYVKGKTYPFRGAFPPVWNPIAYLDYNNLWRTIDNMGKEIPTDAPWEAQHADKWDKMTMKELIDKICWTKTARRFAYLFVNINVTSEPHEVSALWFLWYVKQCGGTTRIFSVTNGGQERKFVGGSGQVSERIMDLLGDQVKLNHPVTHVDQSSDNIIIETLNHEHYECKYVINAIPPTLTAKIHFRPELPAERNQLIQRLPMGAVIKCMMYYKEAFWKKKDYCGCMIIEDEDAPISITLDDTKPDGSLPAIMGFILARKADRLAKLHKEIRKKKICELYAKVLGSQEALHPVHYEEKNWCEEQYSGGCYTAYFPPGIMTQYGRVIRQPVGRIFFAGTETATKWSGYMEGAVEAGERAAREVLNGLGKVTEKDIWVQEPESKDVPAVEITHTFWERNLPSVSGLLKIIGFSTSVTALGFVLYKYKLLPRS
Description: Inhibition of recombinant human MAO-A expressed in baculovirus infected BTI insect cells preincubated for 30 mins followed by addition of p-tyramine as substrate measured over 45 mins by Amplex Red MAO assay.

Assay [8] deals with T8, Amine oxidase [flavin-containing] A. Put plainly: Inhibition of recombinant human MAO-A expressed in baculovirus infected BTI insect cells at 10 uM preincubated for 30 mins followed by addition of p-tyramine as substrate measured over 45 mins by Amplex Red MAO assay relative to control. The settings on record: 0.75 h.

`Cn1c(=O)c2c(nc3n2CCN(CC#Cc2ccc(Cl)c(Cl)c2)C3)n(C)c1=O`: the Ki is more than 1.5 µM at Adenosine receptor A1, more than 10 µM at Adenosine receptor A3, more than 1 µM at Adenosine receptor A2a and more than 1 µM at Adenosine receptor A2b. Also, the Activity in assay [1] was determined as 15%; in assay [3], 29%; in [4], 35%; in [5], 31%. Moreover, the IC50 in assay [2] is more than 10 µM. Also, in [6], the inhibition at 10 µM worked out at 31%.

Turning to `COc1cccc(C#CCN2CCn3c(nc4c3c(=O)n(C)c(=O)n4C)C2)c1`, the Ki at Adenosine receptor A1 was more than 1.5 µM; at Adenosine receptor A3, more than 10 µM; on Adenosine receptor A2a it was more than 1 µM; on Adenosine receptor A2b it was more than 1 µM. The Activity in assay [1] is 7%; in [3], 17%; in [4] it was 9%; in [5], 32%. Moreover, the IC50 in assay [2] was more than 10 µM. The inhibition at 10 µM in [6] amounted to 13%.

Regarding `COc1ccc(CCN2CCn3c(nc4c3c(=O)n(C)c(=O)n4C)C2)cc1OC`, the Ki at Adenosine receptor A1 was more than 1.5 µM; at Adenosine receptor A3 it was more than 10 µM; at Adenosine receptor A2a, more than 1 µM; at Adenosine receptor A2b it was more than 1 µM. The Activity in assay [1] is 6%; in [3], -2%; in assay [4], 43%; in assay [5], 16%. Also, the concentration for half-maximal inhibition (IC50) in assay [2] is more than 10 µM. Moreover, the inhibition at 10 µM in [6] was found to be 13%.

Take `CC(CN1CCn2c(nc3c2c(=O)n(C)c(=O)n3C)C1)c1ccccc1` (configuration not stated): the 50% inhibitory concentration (IC50) in assay [7] and in assay [2] was more than 10 µM in each case. The Ki at Adenosine receptor A1 was more than 1.5 µM; on Adenosine receptor A3, more than 10 µM; on Adenosine receptor A2a, 4.52 µM; at Adenosine receptor A2b, more than 1 µM. For the same compound, the Activity in assay [1] came to 11%; in [3], 27%; in assay [4], 31%. The inhibition at 10 µM in assay [8] was 23%; in assay [6], 11%.

Consider `COc1ccccc1CCN1CCn2c(nc3c2c(=O)n(C)c(=O)n3C)C1`, for which the Ki at Adenosine receptor A1 is more than 1.5 µM; at Adenosine receptor A3, more than 10 µM; on Adenosine receptor A2a it was more than 1 µM; on Adenosine receptor A2b it was more than 1 µM. The Activity came out at 7% in assay [1], 9% in assay [3], 39% in assay [4] and 15% in assay [5]. In addition, in assay [2], the IC50 was more than 10 µM. Besides, the inhibition at 10 µM in [6] was found to be 4%.

Consider `COc1cccc(CCN2CCn3c(nc4c3c(=O)n(C)c(=O)n4C)C2)c1OC`, for which the Ki on Adenosine receptor A1 was more than 1.5 µM; on Adenosine receptor A3 it was more than 10 µM; at Adenosine receptor A2a, more than 1 µM; at Adenosine receptor A2b, more than 1 µM. Besides, the Activity in assay [1] was found to be 8%; in assay [3] it was 5%; in assay [4], 43%; in assay [5], 30%. In addition, the 50% inhibitory concentration (IC50) in assay [2] was more than 10 µM. The inhibition at 10 µM in assay [6] was found to be 1%.

For the compound `COc1cccc2c1CC[C@H](N1CCn3c(nc4c3c(=O)n(C)c(=O)n4C)C1)C2`, the IC50 in assay [7] and in [2] was more than 10 µM each time. The Ki at Adenosine receptor A1 is more than 1.5 µM; on Adenosine receptor A3, more than 10 µM; at Adenosine receptor A2a it was more than 1 µM; at Adenosine receptor A2b, more than 1 µM. Moreover, the Activity stood at 9% in [1], 11% in [3], 8% in assay [4] and 11% in assay [5]. Further, the inhibition at 10 µM is 2% in assay [8] and 7% in assay [6].

`Cn1c(=O)c2c(nc3n2CCN(Cc2cn(-c4ccc(Cl)cc4)nn2)C3)n(C)c1=O`: the Ki at Adenosine receptor A1 is more than 1.5 µM; at Adenosine receptor A3 it was more than 10 µM; on Adenosine receptor A2a it was more than 1 µM; on Adenosine receptor A2b it was more than 1 µM. Besides, the Activity in [1] stood at 27%; in assay [3], 36%; in assay [4], 11%; in assay [5] it was 26%. Besides, the IC50 in assay [2] is more than 10 µM. Besides, the inhibition at 10 µM in assay [6] is 12%.

`Cn1c(=O)c2c(nc3n2CCN(CCCn2ccnc2)C3)n(C)c1=O`: the inhibition constant (Ki) at Adenosine receptor A1 is more than 1.5 µM; at Adenosine receptor A3, more than 10 µM; on Adenosine receptor A2a, more than 1 µM; at Adenosine receptor A2b, more than 1 µM. Also, the Activity in [1] came out at 4%; in [3], 13%; in [4] it was 11%; in assay [5] it was 13%. Besides, the IC50 in assay [2] is more than 10 µM. For the same compound, the inhibition at 10 µM in assay [6] is 2%.

Turning to `COc1cccc(CCN2CCn3c(nc4c3c(=O)n(C)c(=O)n4C)C2)c1`, the Ki at Adenosine receptor A1 was more than 1.5 µM; at Adenosine receptor A3 it was more than 10 µM; at Adenosine receptor A2a it was more than 1 µM; at Adenosine receptor A2b it was more than 1 µM. Besides, the Activity in assay [1] is 5%; in assay [3] it was 17%; in assay [4] it was 23%; in assay [5], 31%. Also, the half-inhibitory concentration (IC50) in assay [2] was more than 10 µM. Besides, the inhibition at 10 µM in [6] is 10%.

As to `Cn1c(=O)c2c(nc3n2CCN(CCc2ccc(F)c(F)c2)C3)n(C)c1=O`, the inhibition constant Ki is more than 1.5 µM at Adenosine receptor A1, more than 10 µM on Adenosine receptor A3, more than 1 µM at Adenosine receptor A2a and more than 1 µM at Adenosine receptor A2b. Besides, the Activity in assay [1] was 12%; in [3] it was 10%; in [4], 11%; in [5] it was 19%. In addition, the inhibition at 10 µM in assay [6] came to 60%.
